Measured values published in PubChem BioAssay AID248 (DTP/NCI, 2004).
Where “and” joins values, the source holds several entries; their conditions need not be identical. Equal values may be shown once. Inconclusive results and toxic doses are left out. Rule as the data show it: active = T/C of 150% or more; inactive = T/C below 125%.

Tested on: L1210 leukemia ip in BDF1 mice, survival T/C
Assay: NCI In Vivo Anticancer Drug Screen. Data for tumor model L1210 Leukemia (intraperitoneal) in B6D2F1 (BDF1) mice
Conditions: endpoint: mean survival time, higher = longer survival
In short: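 Transplanted-tumor mice were given test agent; controls received vehicle only. Survival readings from the two groups were divided (treated over control).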

[1] = dose: 100.0 mg/kg/injection, schedule: Q04DX003 (ip), vehicle: saline with Tween-80
[2] = dose: 100.0 mg/kg/injection, schedule: Q04DX003 (ip), vehicle: saline
[3] = dose: 200.0 mg/kg/injection, schedule: Q04DX003 (ip), vehicle: saline with Tween-80
[4] = dose: 200.0 mg/kg/injection, schedule: Q04DX003 (ip), vehicle: saline
[5] = dose: 400.0 mg/kg/injection, schedule: Q04DX003 (ip), vehicle: saline with Tween-80
[6] = dose: 100.0 mg/kg/injection, schedule: Q01DX001 (ip), vehicle: Klucel (hydroxypropylcellulose) (HPC)
[7] = dose: 200.0 mg/kg/injection, schedule: Q01DX001 (ip), vehicle: Klucel (hydroxypropylcellulose) (HPC)
[8] = dose: 400.0 mg/kg/injection, schedule: Q01DX001 (ip), vehicle: Klucel (hydroxypropylcellulose) (HPC)
[9] = dose: 100.0 mg/kg/injection, schedule: Q01DX009 (ip), vehicle: saline with Tween-80
[10] = dose: 200.0 mg/kg/injection, schedule: Q01DX009 (ip), vehicle: saline with Tween-80
[11] = dose: 50.0 mg/kg/injection, schedule: Q04DX002 (ip), vehicle: Klucel (hydroxypropylcellulose) (HPC)
[12] = dose: 100.0 mg/kg/injection, schedule: Q04DX002 (ip), vehicle: Klucel (hydroxypropylcellulose) (HPC)
[13] = dose: 200.0 mg/kg/injection, schedule: Q04DX002 (ip), vehicle: Klucel (hydroxypropylcellulose) (HPC)
[14] = dose: 100.0 mg/kg/injection, schedule: Q01DX009 (ip), vehicle: Klucel (hydroxypropylcellulose) (HPC)
[15] = dose: 200.0 mg/kg/injection, schedule: Q01DX009 (ip), vehicle: Klucel (hydroxypropylcellulose) (HPC)
[16] = dose: 75.0 mg/kg/injection, schedule: Q01DX001 (ip), vehicle: saline

Measured: T/C

N#C/C(=C\c1c[nH]c2ccccc12)C(N)=O
inactive: dose: 50.0 mg/kg/injection, schedule: Q04DX003 (ip), vehicle: saline 104 % of control | [1] 93 % of control | [2] 107 % of control | [3] 104 % of control | [4] 95 % of control | [5] 96 % of control | dose: 400.0 mg/kg/injection, schedule: Q04DX003 (ip), vehicle: saline 97 % of control

CC(C)=C(c1ccc(Cl)cc1)c1c(Cl)ncnc1Cl
inactive: [1] 101 % of control | [3] 102 % of control | [5] 104 % of control

CC(C)NC(=O)NC(C)C
inactive: [6] 100 % of control | [7] 96 % of control | [8] 94 % of control

CCCCCCCCCCCCOCN1C(=O)N(COCCCCCCCCCCCC)C(=O)C(CC)(c2ccccc2)C1=O
inactive: [9] 97 % of control | [10] 94 % of control | dose: 400.0 mg/kg/injection, schedule: Q01DX009 (ip), vehicle: saline with Tween-80 94 % of control

CC(=O)OC1CCCC2=C(C)C(=O)CCC21C (stereo not drawn)
inactive: dose: 50.0 mg/kg/injection, schedule: Q01DX009 (ip), vehicle: saline with Tween-80 100 % of control | [9] 118 % of control | [10] 94 % of control

O=Cc1c(Cl)n(-c2ccccc2)c2ccccc12
inactive: [11] 97 % of control | [12] 97 % of control | [13] 87 % of control

CCC(C)C(CN)(CCCCN1CCOCC1)c1cccc2ccccc12 (stereo not drawn)
inactive: [1] 98 % of control | [3] 93 % of control

Cc1nc(N)nc(N)c1CCCc1ccccc1
inactive: dose: 1.56 mg/kg/injection, schedule: Q01DX001 (ip), vehicle: saline with Tween-80 93 % of control | dose: 3.13 mg/kg/injection, schedule: Q01DX001 (ip), vehicle: saline with Tween-80 93 % of control | dose: 6.25 mg/kg/injection, schedule: Q01DX001 (ip), vehicle: saline with Tween-80 95 % of control and 97 % of control

Cc1cc2nc(CCl)[nH]c2cc1C
inactive: dose: 50.0 mg/kg/injection, schedule: Q01DX001 (ip), vehicle: saline 106 % of control | dose: 100.0 mg/kg/injection, schedule: Q01DX001 (ip), vehicle: saline 108 % of control | dose: 200.0 mg/kg/injection, schedule: Q01DX001 (ip), vehicle: saline 112 % of control

CN(C)CCS(=O)(=O)c1ccc(Cl)cc1
inactive: dose: 100.0 mg/kg/injection, schedule: Q04DX002 (ip), vehicle: saline 102 % of control | dose: 200.0 mg/kg/injection, schedule: Q04DX002 (ip), vehicle: saline 109 % of control | dose: 400.0 mg/kg/injection, schedule: Q04DX002 (ip), vehicle: saline 98 % of control

Cc1ccc2c(c1)C1CCC3(CC1OC2(C)C)OC(C)(C)c1cc(C)ccc13 (stereo not drawn)
inactive: [14] 95 % of control | dose: 100.0 mg/kg/injection, schedule: Q04DX003 (ip), vehicle: Klucel (hydroxypropylcellulose) (HPC) 105 % of control | [15] 89 % of control | dose: 200.0 mg/kg/injection, schedule: Q04DX003 (ip), vehicle: Klucel (hydroxypropylcellulose) (HPC) 95 % of control | dose: 400.0 mg/kg/injection, schedule: Q04DX003 (ip), vehicle: Klucel (hydroxypropylcellulose) (HPC) 95 % of control

COc1ccc(C(C)(O)c2cc3ccccc3n2S(=O)(=O)c2ccccc2)cc1 (stereo not drawn)
inactive: [11] 102 % of control | [12] 95 % of control | [13] 95 % of control

CN1NC(=O)CC1c1ccccc1 (stereo not drawn)
inactive: [12] 93 % of control | [13] 97 % of control | dose: 400.0 mg/kg/injection, schedule: Q04DX002 (ip), vehicle: Klucel (hydroxypropylcellulose) (HPC) 100 % of control

COC(C(=O)O)c1ccc(Br)cc1 (stereo not drawn)
inactive: dose: 75.0 mg/kg/injection, schedule: Q01DX001 (ip), vehicle: acetone 95 % of control | dose: 150.0 mg/kg/injection, schedule: Q01DX001 (ip), vehicle: acetone 94 % of control

O=[N+]([O-])c1ccc(N/N=C/C(O)C(O)C(O)CO)cc1 (stereo not drawn)
inactive: dose: 50.0 mg/kg/injection, schedule: Q04DX002 (ip), vehicle: saline with Tween-80 106 % of control | dose: 100.0 mg/kg/injection, schedule: Q04DX002 (ip), vehicle: saline with Tween-80 106 % of control | dose: 200.0 mg/kg/injection, schedule: Q04DX002 (ip), vehicle: saline with Tween-80 87 % of control

CC1CN1C1=C(Cl)C(=O)C(N2CC2C)=C(Cl)C1=O (stereo not drawn)
inactive: dose: 0.78 mg/kg/injection, schedule: Q01DX009 (ip), vehicle: Klucel (hydroxypropylcellulose) (HPC) 104 % of control | dose: 1.56 mg/kg/injection, schedule: Q01DX009 (ip), vehicle: Klucel (hydroxypropylcellulose) (HPC) 105 % of control | dose: 3.12 mg/kg/injection, schedule: Q01DX009 (ip), vehicle: Klucel (hydroxypropylcellulose) (HPC) 102 % of control | dose: 6.25 mg/kg/injection, schedule: Q01DX009 (ip), vehicle: Klucel (hydroxypropylcellulose) (HPC) 96 % of control | dose: 12.5 mg/kg/injection, schedule: Q01DX009 (ip), vehicle: Klucel (hydroxypropylcellulose) (HPC) 107 % of control

CN(Cc1cc(Cl)cc(Cl)c1O)C1CC2CCC1(C)C2(C)C (stereo not drawn)
inactive: dose: 25.0 mg/kg/injection, schedule: Q04DX002 (ip), vehicle: Klucel (hydroxypropylcellulose) (HPC) 96 % of control | [11] 103 % of control | [14] 90 % of control | [12] 92 % of control | [15] 88 % of control | dose: 400.0 mg/kg/injection, schedule: Q01DX009 (ip), vehicle: Klucel (hydroxypropylcellulose) (HPC) 103 % of control

CC[N+]1(C2CCCCC2)CCCCC1
inactive: dose: 5.0 mg/kg/injection, schedule: Q01DX001 (ip), vehicle: saline 101 % of control | dose: 10.0 mg/kg/injection, schedule: Q01DX001 (ip), vehicle: saline 103 % of control | dose: 20.0 mg/kg/injection, schedule: Q01DX001 (ip), vehicle: saline 100 % of control | dose: 40.0 mg/kg/injection, schedule: Q01DX001 (ip), vehicle: saline 91 % of control | [16] 96 % of control

CC(=O)OC1C(C)OC(OC2C=C3CCC4C(CCC5(C)C(c6ccc(=O)oc6)CCC45O)C3(C)CC2)C(OC(C)=O)C1OC(C)=O (stereo not drawn)
inactive: dose: 6.25 mg/kg/injection, schedule: Q01DX009 (ip), vehicle: saline with Tween-80 102 % of control | dose: 12.5 mg/kg/injection, schedule: Q01DX009 (ip), vehicle: saline with Tween-80 100 % of control | dose: 12.5 mg/kg/injection, schedule: Q04DX003 (ip), vehicle: saline with Tween-80 105 % of control | dose: 25.0 mg/kg/injection, schedule: Q01DX009 (ip), vehicle: saline with Tween-80 103 % of control | dose: 25.0 mg/kg/injection, schedule: Q04DX003 (ip), vehicle: saline with Tween-80 105 % of control

CC(=O)OC1=COc2c(Cl)ccc3cccc1c23
inactive: [6] 103 % of control | [7] 109 % of control | [8] 97 % of control

CCCCN=CC(C)(C)NCCCC
inactive: dose: 50.0 mg/kg/injection, schedule: Q01DX009 (ip), vehicle: saline 95 % of control | dose: 100.0 mg/kg/injection, schedule: Q01DX009 (ip), vehicle: saline 90 % of control | [2] 106 % of control | dose: 200.0 mg/kg/injection, schedule: Q01DX009 (ip), vehicle: saline 88 % of control | [4] 104 % of control

CC1=CC(c2c(O)cccc2O)C(=C(C)C)CC1 (stereo not drawn)
inactive: dose: 50.0 mg/kg/injection, schedule: Q01DX009 (ip), vehicle: Klucel (hydroxypropylcellulose) (HPC) 95 % of control | [14] 95 % of control | [15] 95 % of control

Brc1ccc[n+](Cc2ccccc2)c1
inactive: [16] 98 % of control

COc1cc2c(c(OC)c1OC)-c1ccc(SC)c(=O)cc1C(N=C(NC1OCC(OC(C)=O)C(OC(C)=O)C1OC(C)=O)SN(NC(=O)OCc1ccccc1)C(=O)OCc1ccccc1)CC2 (stereo not drawn)
inactive: dose: 25.0 mg/kg/injection, schedule: Q01DX001 (ip), vehicle: saline with Tween-80 95 % of control | dose: 50.0 mg/kg/injection, schedule: Q01DX001 (ip), vehicle: saline with Tween-80 95 % of control | dose: 100.0 mg/kg/injection, schedule: Q01DX001 (ip), vehicle: saline with Tween-80 100 % of control

CC1(C)C2CCC1(C)C(O)C2=O (stereo not drawn)
inactive: dose: 75.0 mg/kg/injection, schedule: Q01DX009 (ip), vehicle: saline 95 % of control | dose: 150.0 mg/kg/injection, schedule: Q01DX009 (ip), vehicle: saline 92 % of control | dose: 300.0 mg/kg/injection, schedule: Q01DX009 (ip), vehicle: saline 95 % of control
